Experimental data from PubChem BioAssay AID256 (DTP/NCI, 2004).
Where “and” joins values, the source holds several entries; their conditions need not be identical. Equal values may be shown once. Inconclusive results and toxic doses are left out. The calls were made as follows: active = survival T/C of 150% or more; inactive = T/C below 125% in these data.

System: CD2F1 mice, L1210 leukemia ip, survival T/C
Experiment: NCI In Vivo Anticancer Drug Screen. Data for tumor model L1210 Leukemia (intraperitoneal) in CD2F1 (CDF1) mice
Conditions: higher = longer survival
In short: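 Mice carrying a transplanted tumor received test compound or vehicle alone. The value is the measurement in the treated group divided by that in the vehicle-treated control group.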

[1] = endpoint: mean survival time, dose: 100.0 mg/kg/injection, schedule: Q04DX003 (ip), vehicle: saline with Tween-80
[2] = endpoint: mean survival time, dose: 200.0 mg/kg/injection, schedule: Q04DX003 (ip), vehicle: saline with Tween-80
[3] = endpoint: mean survival time, dose: 400.0 mg/kg/injection, schedule: Q04DX003 (ip), vehicle: saline with Tween-80
[4] = endpoint: mean survival time, dose: 100.0 mg/kg/injection, schedule: Q01DX009 (ip), vehicle: saline with Tween-80
[5] = endpoint: mean survival time, dose: 200.0 mg/kg/injection, schedule: Q01DX009 (ip), vehicle: saline with Tween-80
[6] = endpoint: mean survival time, dose: 400.0 mg/kg/injection, schedule: Q01DX009 (ip), vehicle: saline with Tween-80
[7] = endpoint: mean survival time, dose: 200.0 mg/kg/injection, schedule: Q01DX001 (ip), vehicle: saline with Tween-80
[8] = endpoint: mean survival time, dose: 400.0 mg/kg/injection, schedule: Q01DX001 (ip), vehicle: saline with Tween-80

Measured: T/C

CCOC(=O)/N=[N+](\[O-])c1ccccc1
inactive: endpoint: median survival time, dose: 3.12 mg/kg/injection, schedule: Q01DX009 (ip), vehicle: saline with Tween-80 109 % of control | endpoint: median survival time, dose: 6.25 mg/kg/injection, schedule: Q01DX009 (ip), vehicle: saline with Tween-80 112 % of control | endpoint: median survival time, dose: 12.5 mg/kg/injection, schedule: Q01DX009 (ip), vehicle: saline with Tween-80 105 % of control

OCC1OC(n2cnc3c(NO)ncnc32)C(O)C1O (stereo not drawn)
inactive: endpoint: mean survival time, dose: 12.5 mg/kg/injection, schedule: Q01DX009 (ip), vehicle: Klucel (hydroxypropylcellulose) (HPC) 87 % of control and 103 % of control | endpoint: mean survival time, dose: 25.0 mg/kg/injection, schedule: Q01DX009 (ip), vehicle: Klucel (hydroxypropylcellulose) (HPC) 88 % of control and 104 % of control | endpoint: mean survival time, dose: 50.0 mg/kg/injection, schedule: Q01DX009 (ip), vehicle: Klucel (hydroxypropylcellulose) (HPC) 92 % of control and 104 % of control | endpoint: mean survival time, dose: 100.0 mg/kg/injection, schedule: Q01DX009 (ip), vehicle: Klucel (hydroxypropylcellulose) (HPC) 92 % of control and 104 % of control | endpoint: mean survival time, dose: 200.0 mg/kg/injection, schedule: Q01DX009 (ip), vehicle: Klucel (hydroxypropylcellulose) (HPC) 92 % of control and 104 % of control | endpoint: mean survival time, dose: 400.0 mg/kg/injection, schedule: Q01DX009 (ip), vehicle: Klucel (hydroxypropylcellulose) (HPC) 95 % of control and 107 % of control

COc1ccc(C2=NCCc3cc(OC)c(OC)cc32)cc1OC
inactive: endpoint: mean survival time, dose: 12.5 mg/kg/injection, schedule: Q01DX009 (ip), vehicle: other 90 % of control | endpoint: mean survival time, dose: 25.0 mg/kg/injection, schedule: Q01DX009 (ip), vehicle: other 92 % of control

OCCc1ccccc1
inactive: endpoint: mean survival time, dose: 50.0 mg/kg/injection, schedule: Q03HX024 (ip), vehicle: saline with Tween-80 102 % of control | endpoint: mean survival time, dose: 100.0 mg/kg/injection, schedule: Q03HX024 (ip), vehicle: saline with Tween-80 100 % of control | [1] 96 % of control | endpoint: mean survival time, dose: 125.0 mg/kg/injection, schedule: Q01DX009 (ip), vehicle: saline 105 % of control | endpoint: mean survival time, dose: 200.0 mg/kg/injection, schedule: Q03HX024 (ip), vehicle: saline with Tween-80 100 % of control | [2] 93 % of control | endpoint: mean survival time, dose: 250.0 mg/kg/injection, schedule: Q01DX009 (ip), vehicle: saline 102 % of control | [3] 93 % of control | endpoint: mean survival time, dose: 500.0 mg/kg/injection, schedule: Q01DX001 (ip), vehicle: saline with Tween-80 106 % of control | endpoint: mean survival time, dose: 500.0 mg/kg/injection, schedule: Q01DX009 (ip), vehicle: saline 103 % of control

COC(=O)C(C(=O)OC)C(Br)(OC(C)=O)OC(C)=O
inactive: [4] 97 % of control | [5] 104 % of control | [6] 109 % of control

CCCCCCCCCCCCCCOc1ccc(OCCCCCCCCCCC)cc1
inactive: [7] 89 % of control | [8] 89 % of control

CCOC(=O)N1C(C(=O)c2ccc(C)cc2)N(C2CCCCC2)C(c2ccccc2)N1C(=O)OCC (stereo not drawn)
inactive: [4] 90 % of control | [1] 97 % of control | [5] 93 % of control | [2] 92 % of control | [6] 90 % of control | [3] 93 % of control

Cc1cc(C)c(C(=O)CCCC(=O)O)c(C)c1
inactive: [1] 94 % of control | [2] 92 % of control

Cc1cc(N(CCOS(C)(=O)=O)CCOS(C)(=O)=O)ccc1C=Nc1ccc(C(=O)O)c(O)c1
inactive: endpoint: mean survival time, dose: 4.0 mg/kg/injection, schedule: Q01DX009 (ip), vehicle: saline with Tween-80 118 % of control | endpoint: mean survival time, dose: 6.0 mg/kg/injection, schedule: Q01DX009 (ip), vehicle: saline with Tween-80 111 % of control | endpoint: mean survival time, dose: 12.5 mg/kg/injection, schedule: Q01DX009 (ip), vehicle: saline with Tween-80 123 % of control

O=[As](O)(c1ccccc1)C1CCCCC1O (stereo not drawn)
inactive: endpoint: mean survival time, dose: 25.0 mg/kg/injection, schedule: Q01DX001 (ip), vehicle: saline with Tween-80 98 % of control

O=C1CCCN1c1ccc([N+](=O)[O-])cc1
inactive: endpoint: mean survival time, dose: 12.5 mg/kg/injection, schedule: Q04DX002 (ip), vehicle: saline with Tween-80 102 % of control | endpoint: mean survival time, dose: 25.0 mg/kg/injection, schedule: Q04DX002 (ip), vehicle: saline with Tween-80 102 % of control | endpoint: mean survival time, dose: 50.0 mg/kg/injection, schedule: Q04DX002 (ip), vehicle: saline with Tween-80 102 % of control | endpoint: mean survival time, dose: 100.0 mg/kg/injection, schedule: Q01DX001 (ip), vehicle: saline with Tween-80 110 % of control | [4] 98 % of control | [7] 104 % of control | [5] 98 % of control | [8] 101 % of control | [6] 106 % of control

CCCCCCCCCSCCOC(=S)N(C)C
inactive: endpoint: mean survival time, dose: 100.0 mg/kg/injection, schedule: Q04DX002 (ip), vehicle: saline with Tween-80 93 % of control | endpoint: mean survival time, dose: 200.0 mg/kg/injection, schedule: Q04DX002 (ip), vehicle: saline with Tween-80 93 % of control | endpoint: mean survival time, dose: 400.0 mg/kg/injection, schedule: Q04DX002 (ip), vehicle: saline with Tween-80 93 % of control

CCOC(=O)C1C(=O)NCC1c1ccccc1 (stereo not drawn)
inactive: endpoint: mean survival time, dose: 50.0 mg/kg/injection, schedule: Q01DX009 (ip), vehicle: saline with Tween-80 106 % of control | [4] 101 % of control | [5] 101 % of control

Nc1cc2[nH]cnc2c(=O)[nH]1
inactive: endpoint: mean survival time, dose: 12.5 mg/kg/injection, schedule: Q01DX009 (ip), vehicle: suspension in saline 105 % of control | endpoint: mean survival time, dose: 25.0 mg/kg/injection, schedule: Q01DX005 (ip), vehicle: saline 97 % of control and 111 % of control | endpoint: mean survival time, dose: 25.0 mg/kg/injection, schedule: Q01DX009 (ip), vehicle: suspension in saline 113 % of control | endpoint: mean survival time, dose: 50.0 mg/kg/injection, schedule: Q01DX005 (ip), vehicle: saline 114 % of control and 119 % of control | endpoint: mean survival time, dose: 400.0 mg/kg/injection, schedule: Q01DX009 (ip), vehicle: suspension in saline 90 % of control
